The results in this text go back to PMC2996585 (Journal of medicinal chemistry, 2010).

The target of this experiment is T1, ENaC (Homo sapiens, UniProt P37088).
T1 sequence (P37088 1-669): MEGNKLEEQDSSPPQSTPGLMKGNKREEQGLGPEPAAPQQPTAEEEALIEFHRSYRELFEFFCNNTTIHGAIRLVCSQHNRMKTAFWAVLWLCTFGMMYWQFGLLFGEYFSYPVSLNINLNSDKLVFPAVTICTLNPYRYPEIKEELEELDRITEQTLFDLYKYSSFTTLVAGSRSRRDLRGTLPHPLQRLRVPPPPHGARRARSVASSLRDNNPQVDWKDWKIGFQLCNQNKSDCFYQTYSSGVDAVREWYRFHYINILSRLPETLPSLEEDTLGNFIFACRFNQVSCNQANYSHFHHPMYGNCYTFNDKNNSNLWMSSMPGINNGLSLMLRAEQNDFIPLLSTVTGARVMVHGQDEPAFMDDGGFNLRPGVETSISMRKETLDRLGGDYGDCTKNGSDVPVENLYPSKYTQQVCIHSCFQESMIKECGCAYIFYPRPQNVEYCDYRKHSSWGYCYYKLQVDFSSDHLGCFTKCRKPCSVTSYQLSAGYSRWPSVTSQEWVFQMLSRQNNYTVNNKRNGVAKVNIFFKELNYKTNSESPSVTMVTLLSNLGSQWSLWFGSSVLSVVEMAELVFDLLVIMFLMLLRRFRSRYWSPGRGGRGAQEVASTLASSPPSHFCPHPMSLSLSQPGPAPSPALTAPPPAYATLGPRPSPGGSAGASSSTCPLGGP
T1 sequence (P51168 1-640 partner): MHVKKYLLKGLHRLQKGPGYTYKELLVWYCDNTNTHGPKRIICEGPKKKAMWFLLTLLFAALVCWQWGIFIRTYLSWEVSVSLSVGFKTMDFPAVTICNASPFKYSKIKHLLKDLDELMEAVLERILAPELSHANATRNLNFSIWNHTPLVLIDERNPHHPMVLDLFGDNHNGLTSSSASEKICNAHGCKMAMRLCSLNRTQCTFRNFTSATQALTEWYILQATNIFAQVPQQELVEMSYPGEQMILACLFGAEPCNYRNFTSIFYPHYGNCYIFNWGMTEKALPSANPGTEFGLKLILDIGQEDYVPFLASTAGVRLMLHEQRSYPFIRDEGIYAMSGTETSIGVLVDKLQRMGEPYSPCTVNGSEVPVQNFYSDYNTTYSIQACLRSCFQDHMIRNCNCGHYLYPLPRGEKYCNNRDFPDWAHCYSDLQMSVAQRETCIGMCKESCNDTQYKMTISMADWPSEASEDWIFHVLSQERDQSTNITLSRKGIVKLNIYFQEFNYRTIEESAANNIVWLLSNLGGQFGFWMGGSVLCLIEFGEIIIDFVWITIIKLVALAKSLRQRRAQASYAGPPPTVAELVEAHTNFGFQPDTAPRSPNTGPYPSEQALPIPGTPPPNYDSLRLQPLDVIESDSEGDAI
T1 sequence (P51170 1-649 partner): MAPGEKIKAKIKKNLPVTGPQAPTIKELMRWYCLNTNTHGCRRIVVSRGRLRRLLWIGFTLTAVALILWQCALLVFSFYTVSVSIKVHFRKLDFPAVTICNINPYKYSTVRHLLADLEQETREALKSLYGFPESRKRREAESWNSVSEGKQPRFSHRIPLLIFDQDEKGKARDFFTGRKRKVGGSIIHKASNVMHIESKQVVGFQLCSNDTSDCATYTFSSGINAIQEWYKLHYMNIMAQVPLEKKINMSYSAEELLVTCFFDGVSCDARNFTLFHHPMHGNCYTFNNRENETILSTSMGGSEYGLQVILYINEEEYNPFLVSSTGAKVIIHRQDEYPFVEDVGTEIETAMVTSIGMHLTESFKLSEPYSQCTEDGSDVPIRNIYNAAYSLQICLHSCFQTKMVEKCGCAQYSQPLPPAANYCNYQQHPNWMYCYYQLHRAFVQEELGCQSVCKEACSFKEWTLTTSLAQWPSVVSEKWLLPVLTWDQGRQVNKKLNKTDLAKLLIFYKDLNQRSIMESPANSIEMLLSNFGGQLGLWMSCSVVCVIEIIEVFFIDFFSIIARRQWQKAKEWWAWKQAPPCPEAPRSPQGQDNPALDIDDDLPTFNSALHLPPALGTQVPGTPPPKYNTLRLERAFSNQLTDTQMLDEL
The format is cell-based. Conditions: A549 cells, whole-cell patch clamp; for ENaC-activating effect / effect on sodium current (in words): no concentration stated at the place.

Entries after “also recorded” stand apart in the source; their conditions may differ. Like-named read-outs stand apart in the source and are kept apart here. Bridges are numbered along the chain shown (N, C = ends). Where no end group is shown, it is not given here.

“CGQREAPAGAAAKPWYC (disulfide 1-17) [compound 12, reference compound]”: the “ENaC-activating effect / effect on sodium current (in words)” value (“ENaC-activating effect / effect” for short) was “ineffective; also recorded: no effect”. Besides, under “concentrations up to 480 nM”, the “Effect on ENaC” value is “no effect”.
Take “CQRETPEGAEAKGGC (disulfide 1-15) [compound 2]”: the “ENaC-activating effect / effect” value was “ineffective; also recorded: inactive”. For the same substance, the “Effect on ENaC” value (concentrations up to 480 nM) was “no effect”.
With “Cyclo(4-aminobutanoic acid-GQRETPEGAEAKPWYG) (head to tail) [compound 7]”, the “ENaC-activating effect / effect” value is “did not affect ENaC; also recorded: inactive”. Also, the “Effect on ENaC” value (concentrations up to 240 nM) is on record as “no effect”. For the same substance, the “Effect on ENaC” value (concentrations up to 480 nM) is given as “no effect”.
In the case of “Cyclo(5-aminopentanoic acid-GQRETPEGAEAKPWYG) (head to tail) [compound 6]”, the “ENaC-activating effect / effect” value is “did not affect ENaC; also recorded: inactive”. Besides, the “Effect on ENaC” value (concentrations up to 240 nM) is recorded as “no effect”. Besides, the “Effect on ENaC” value (concentrations up to 480 nM) was “no effect”.
As for “Cyclo(6-aminohexanoic acid-GQRETPEGAEAKPWYG) (head to tail) [compound 11]”, the “ENaC-activating effect / effect” value was “inactive”. In addition, where the note is “concentrations up to 240 nM”, the “Effect on ENaC” value is listed as “no effect”. For the same substance, the “Effect on ENaC” value (concentrations up to 480 nM) is given as “no effect”. In addition, the “ENaC-activating effect / effect” value (listed as 22) is “did not affect ENaC”.
For “Cyclo(7-aminoheptanoic acid-GQRETPEGAEAKPWY) (head to tail) [compound 10]”, the “Effect on ENaC” value is, setting by setting: (concentrations up to 240 nM) “no effect”; (concentrations up to 480 nM) “no effect”.
